Experimental data from US20050164370A1 (priority 2003, published 2005).

Columns and labels:
cytokinin receptor AHK2 = target: T1, cytokinin receptor AHK2 (Arabidopsis thaliana, UniProt Q9C5U2); test: Agonist-activity to cytokinin receptor, optical density of TM182-AHK2 liquid culture; type: cell-based, yeast; design: expressed in transfected cells; host or cells: yeast strain TM182 carrying plasmid p415CYC-AHK2 (pHM-1 backbone, CYC1 promoter); conditions: TM182-AHK2, examinee substance 100 μM, DOLU+Glu, 30° C. for 24 hours
T1 sequence (Q9C5U2 1-1176): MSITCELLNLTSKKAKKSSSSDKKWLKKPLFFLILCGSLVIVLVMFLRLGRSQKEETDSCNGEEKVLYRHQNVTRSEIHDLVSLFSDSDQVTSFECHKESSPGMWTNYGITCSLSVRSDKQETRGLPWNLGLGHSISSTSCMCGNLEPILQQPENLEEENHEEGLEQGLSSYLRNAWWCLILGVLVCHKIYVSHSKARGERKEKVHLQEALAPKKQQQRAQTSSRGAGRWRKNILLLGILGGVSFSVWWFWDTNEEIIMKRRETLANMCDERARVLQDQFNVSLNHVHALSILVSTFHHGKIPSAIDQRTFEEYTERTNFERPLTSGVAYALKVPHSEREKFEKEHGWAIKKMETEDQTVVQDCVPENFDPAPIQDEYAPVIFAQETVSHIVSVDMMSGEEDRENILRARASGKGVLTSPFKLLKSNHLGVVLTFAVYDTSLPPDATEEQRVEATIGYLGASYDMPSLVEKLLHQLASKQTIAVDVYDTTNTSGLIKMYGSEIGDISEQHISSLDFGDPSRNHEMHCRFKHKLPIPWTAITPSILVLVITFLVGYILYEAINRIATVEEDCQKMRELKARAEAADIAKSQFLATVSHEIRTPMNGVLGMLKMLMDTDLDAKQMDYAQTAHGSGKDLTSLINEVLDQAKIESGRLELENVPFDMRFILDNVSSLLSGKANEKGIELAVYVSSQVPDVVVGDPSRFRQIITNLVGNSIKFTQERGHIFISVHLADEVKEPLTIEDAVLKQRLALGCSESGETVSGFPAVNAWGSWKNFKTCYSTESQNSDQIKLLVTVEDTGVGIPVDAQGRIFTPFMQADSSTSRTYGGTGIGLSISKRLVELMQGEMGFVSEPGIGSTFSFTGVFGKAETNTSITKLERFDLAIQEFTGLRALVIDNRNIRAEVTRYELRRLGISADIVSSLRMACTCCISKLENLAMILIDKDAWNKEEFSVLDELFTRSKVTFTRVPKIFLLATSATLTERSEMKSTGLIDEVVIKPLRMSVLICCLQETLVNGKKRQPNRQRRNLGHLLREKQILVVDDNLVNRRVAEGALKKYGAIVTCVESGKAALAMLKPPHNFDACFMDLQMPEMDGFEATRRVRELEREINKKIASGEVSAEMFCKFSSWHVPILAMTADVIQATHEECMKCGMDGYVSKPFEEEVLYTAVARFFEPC
Procedure: The transformed cells TM182-AHK2, TM182-AHK2Δ and TM182-AHK3 produced in the reference example 1 were inoculated in 200 ml of DOLU+Gal culture media and pre-cultured at 30° C. for 36 hours. The pre-cultured solutions were diluted with DOLU+Glu media as to become 0.100 as the optical density (OD600) and further the resultants were diluted with DOLU+Glu media at a dilution rate of 1/200 to obtain diluted pre-cultured solutions.
An assay plate was prepared by filling respective wells of a 96-well plate with 20 μl of solutions which were prepared by diluting DMSO solution (10 mM) of each examinee substance with DOLU+Glu medium at a dilution rate of 1/100, said solutions containing each examinee substance to be […]. […]
The diluted pre-cultured solutions were added in 200 μl each into the respective wells of both assay plates and cultured at 30° C. for 24 hours and then the optical density (OD620) of each well was measured by a plate reader. The agonist-activity of the examinee substances to the cytokinin receptor was detected by comparing the optical density measured in the testing sections to which the examinee substances were added with the optical density measured in the blank sections.

[1] = test system: transformed cells TM182-CRE1-ADHIPT5; type: cell-based, yeast; conditions: Table 3, TM182-CRE1-ADH-IPT5, 1 μL of 200 ppm DMSO solution per 100 μL, DOHLU+Glu, 30° C. for 24 hours
Procedure: Each of the transformed cells TM182-CYC1-CYC1IPT4, TM182-CYC1-ADHIPT4, TM182-CYC1-CYC1IPT5, TM182-CYC1-ADHIPT5, TM182-CRE1-CYC1IPT4, and TM182-CRE1-ADHIPT5 obtained in Example 16 was inoculated in 200 mL of DOHLU+Gal culture medium, and was pre-cultured at 30° C. for 36 hours. The thus obtained culture solutions were diluted with DOHLU+Glu culture medium so that OD600 became 0.200, and then the diluted ones were further diluted with DOHLU+Glu culture medium at a dilution rate of 1/200 to obtain diluted pre-cultured solutions.
A 96-well assay plate was prepared by filling each well with 1 μL of a DMSO solution of an examinee substance (Abscisic acid or 6-Benzyl aminopurine). In this regard, it is to be noted that the DMSO solution of a examinee substance was prepared so that the concentration thereof became 200 ppm. Simultaneously, an assay plate was prepared by filling each well with 1 μL of DMSO as a blank section.
Each of the diluted pre-cultured solutions was added in a volume of 100 μL per each well of both of the assay plates, and was cultured at 30° C. for 24 hours. After incubation, the turbidity of each well was measured using a plate reader.

Compound	optical density (OD620) of the culture solution (cytokinin receptor AHK2)	absorbance (OD600) of the culture solution [1]
CC1=CC(=O)CC(C)(C)[C@@]1(O)/C=C/C(C)=C\C(=O)O [Compound A, Abscisic acid]	0.01	0.131
c1ccc(CNc2ncnc3nc[nH]c23)cc1 [Compound B, 6-Benzyl aminopurine]	0.45	0.293
